Consider two molecules from publication PMC12093266, “Synergistic action of two radical SAM enzymes in the biosynthesis of thuricin CD, a two-component sactibiotic” (Chemical Science, 2025).

Numbered stars: 1 amine (or outer) side, 2 acyl side, 3 side chain; on linkers, the order of the positions; unused ones are H or OH. Bridge positions count the residues as written; N and C are the ends. Square brackets hold non-standard residues; d marks the D form. Peptide text beside a SMILES is read from it. X3 = O=C([C@@](Cc1ccc(O)cc1)(N[*:1])[*:3])[*:2]; X5 = C[C@@H](O)[C@@](N[*:1])(C(=O)[*:2])[*:3]; X1 = C[C@@H](O)[C@](N[*:1])(C(=O)[*:2])[*:3]; X4 = O=C([C@](CO)(N[*:1])[*:3])[*:2]; X2 = C[C@](N[*:1])(C(=O)[*:2])[*:3]

Assay [1] deals with Bacillus cereus. Nature of the assay: Disk diffusion susceptibility test. The class given is cell-based. The settings on record: 5 μL of 100 μM peptide (each) on filter paper, BHI agar, 30 °C, 15-20 h.
Description: In vitro susceptibility test
Briefly, the liquid Brain Heart Infusion (BHI) agar (3.2 % BHI, 1.5% agar) was cooled to 42 °C and seeded with 100 μL of dense overnight culture (approximately 10 8-109 CFU mL -1) of Bacillus cereus. […] Kanamycin and 30% isopropanol were used
Spot 4: 5 μL 0.1 mg/ml kanamycin; Spot 5: 5 μL 30% isopropanol.
Assay [2] relates to Bacillus cereus. The format is cell-based. The settings on record: B. cereus in LB, 96-well plate, serial dilution, 30 °C, 16 h, OD600; lowest concentration with <10% OD increase over kanamycin well; HPLC-purified peptides in 30% isopropanol; '>' = no inhibition observed at that concentration. On the procedure:
To test whether the thuricin CD variant obtained in E. coli was bioactive, we performed disk diffusion susceptibility tests with trnα′ and trnβ′ using Bacillus cereus as a test strain. […]
the elution fraction (1: 200 (v/v) ratio), and the resulting solution was then kept overnight for digestion at 4 °C. The resulting solution was heat-inactivated at 95 °C for 10 min followed by freezing at -80 °C for 1 h, and was subjected to centrifugation (13000 × g for 15 min at 4 °C) to remove any precipitates. The resulting solutions containing TrnA or TrnB were directly used in downstream analysis or frozen at -80 °C […]
Production of trnα’ and trnβ’
The modified TrnA and TrnB solutions were mixed with GluC (2 mg/ml stock solution) in a 50:1 (v/v) ratio and the proteolytic reaction was proceeded at room temperature for 2hr. The reaction mixture was subsequently quenched by methanol, and was lyophilized after centrifugation to remove any protein precipitate. The resulting sample was then dissolved in 30% isopropanol and injected onto a reverse phase Phenomenex Aeris PEPTIDE XB-C18 column (250 x 10 mm, 5 μm). […]
as a positive and negative controls, respectively. […] The OD600 was read on a SP-Max 2300A plate reader. […]

`CC[C@H](C)[C@H](N)C(=O)NCC(=O)NCC(=O)N[C@@H](CC(N)=O)C(=O)N[C@@H](C)C(=O)N[C@@H](C)C(=O)N[C@H]1CS[C@](C(=O)N[C@@H](CC(C)C)C(=O)NCC(=O)O)([C@@H](C)O)NC(=O)[C@H](Cc2ccccc2)NC(=O)[C@H](C)NC(=O)[C@]2([C@@H](C)O)NC(=O)CNC(=O)[C@H](C(C)C)NC(=O)[C@H](CC(C)C)NC(=O)[C@]3(CO)NC(=O)CNC(=O)[C@H]([C@@H](C)CC)NC(=O)CNC(=O)[C@H](CCC(=O)O)NC(=O)[C@H](CO)NC(=O)[C@H]([C@@H](C)CC)NC(=O)[C@H](C(C)C)NC(=O)[C@H](CS3)NC(=O)[C@H](CO)NC(=O)CNC(=O)[C@H]([C@@H](C)CC)NC(=O)[C@H](CS2)NC(=O)CNC(=O)[C@H]([C@@H](C)CC)NC(=O)[C@H](C(C)C)NC1=O` [trnα′] (H-IGGNAACVIGCIGSCVISEGIG[X4]LVG[X1]AF[X5]LG-OH; thioether 7-30, 11-27, 15-23; N-terminus and C-terminus assumed): the “inhibition in disk diffusion test” value in the assay with Bacillus cereus [1] was “no activity”. Besides, in the assay with Bacillus cereus [2], the “minimal inhibition concentration (MIC)” value is greater than 50 µM.

Turning to `CC(C)C[C@H](NC(=O)[C@H](Cc1ccccc1)NC(=O)[C@@]1(Cc2ccc(O)cc2)NC(=O)[C@H](CO)NC(=O)[C@H](C)NC(=O)[C@]2(C)NC(=O)[C@H](C)NC(=O)[C@H](Cc3ccccc3)NC(=O)[C@H](CCC(=O)O)NC(=O)[C@]3([C@@H](C)O)NC(=O)CNC(=O)[C@H](C(C)C)NC(=O)CNC(=O)CNC(=O)[C@H](CO)NC(=O)[C@H](C)NC(=O)[C@H](CC(C)C)NC(=O)[C@H](CS3)NC(=O)[C@H](C(C)C)NC(=O)[C@H]([C@@H](C)O)NC(=O)CNC(=O)[C@H](CS2)NC(=O)[C@H](C)NC(=O)CNC(=O)[C@H](C(C)C)NC(=O)[C@@H](NC(=O)[C@H](C)NC(=O)[C@@H](NC(=O)[C@H](Cc2c[nH]c3ccccc23)NC(=O)CNC(=O)CNC(=O)[C@@H](N)C(C)C)C(C)C)CS1)C(=O)O` [trnβ′] (H-VGGWVACVGACGTVCLASGGVG[X1]EFA[X2]AS[X3]FL-OH; thioether 7-30, 11-27, 15-23; N-terminus and C-terminus assumed), the “inhibition in disk diffusion test” value in the assay on Bacillus cereus [1] was “no activity”. Also, the “minimal inhibition concentration (MIC)” value in the assay with Bacillus cereus [2] is greater than 50 µM.
